Measurements reported in patent publication US12509446B2, “FYN and VEGFR2 kinase inhibitors” (ROTTAPHARM BIOTECH S.R.L., priority 2019, dated 2025).

Legend:
[1] = target: Fyn (Homo sapiens (Human), UniProt P06241); test: Z′-LYTE in vitro Fyn kinase activity assay; assay type: biochemical; details: ATP 50 μM; read-out: FYN KINASE INHIBITION IC50
In short: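 Z′-LYTE FRET format with full-length active Fyn in 50 mM Hepes pH 7.5, 10 mM MgCl2, 1 mM EGTA, 0.01% Brij-35, 1% DMSO final; 60 minutes at 25° C. Percent phosphorylation from 0% and 100% phosphorylation controls; IC50 by non-linear curve fitting of percent inhibition.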

[2] = target: VEGFR2 (Homo sapiens (Human), UniProt P35968); test: In vitro VEGFR2 kinase activity assay (Eurofins Cerep); assay type: biochemical; details: read-out: VEGFR2 KINASE INHIBITION IC50
Chain of VEGFR2 (P35968 20-1356): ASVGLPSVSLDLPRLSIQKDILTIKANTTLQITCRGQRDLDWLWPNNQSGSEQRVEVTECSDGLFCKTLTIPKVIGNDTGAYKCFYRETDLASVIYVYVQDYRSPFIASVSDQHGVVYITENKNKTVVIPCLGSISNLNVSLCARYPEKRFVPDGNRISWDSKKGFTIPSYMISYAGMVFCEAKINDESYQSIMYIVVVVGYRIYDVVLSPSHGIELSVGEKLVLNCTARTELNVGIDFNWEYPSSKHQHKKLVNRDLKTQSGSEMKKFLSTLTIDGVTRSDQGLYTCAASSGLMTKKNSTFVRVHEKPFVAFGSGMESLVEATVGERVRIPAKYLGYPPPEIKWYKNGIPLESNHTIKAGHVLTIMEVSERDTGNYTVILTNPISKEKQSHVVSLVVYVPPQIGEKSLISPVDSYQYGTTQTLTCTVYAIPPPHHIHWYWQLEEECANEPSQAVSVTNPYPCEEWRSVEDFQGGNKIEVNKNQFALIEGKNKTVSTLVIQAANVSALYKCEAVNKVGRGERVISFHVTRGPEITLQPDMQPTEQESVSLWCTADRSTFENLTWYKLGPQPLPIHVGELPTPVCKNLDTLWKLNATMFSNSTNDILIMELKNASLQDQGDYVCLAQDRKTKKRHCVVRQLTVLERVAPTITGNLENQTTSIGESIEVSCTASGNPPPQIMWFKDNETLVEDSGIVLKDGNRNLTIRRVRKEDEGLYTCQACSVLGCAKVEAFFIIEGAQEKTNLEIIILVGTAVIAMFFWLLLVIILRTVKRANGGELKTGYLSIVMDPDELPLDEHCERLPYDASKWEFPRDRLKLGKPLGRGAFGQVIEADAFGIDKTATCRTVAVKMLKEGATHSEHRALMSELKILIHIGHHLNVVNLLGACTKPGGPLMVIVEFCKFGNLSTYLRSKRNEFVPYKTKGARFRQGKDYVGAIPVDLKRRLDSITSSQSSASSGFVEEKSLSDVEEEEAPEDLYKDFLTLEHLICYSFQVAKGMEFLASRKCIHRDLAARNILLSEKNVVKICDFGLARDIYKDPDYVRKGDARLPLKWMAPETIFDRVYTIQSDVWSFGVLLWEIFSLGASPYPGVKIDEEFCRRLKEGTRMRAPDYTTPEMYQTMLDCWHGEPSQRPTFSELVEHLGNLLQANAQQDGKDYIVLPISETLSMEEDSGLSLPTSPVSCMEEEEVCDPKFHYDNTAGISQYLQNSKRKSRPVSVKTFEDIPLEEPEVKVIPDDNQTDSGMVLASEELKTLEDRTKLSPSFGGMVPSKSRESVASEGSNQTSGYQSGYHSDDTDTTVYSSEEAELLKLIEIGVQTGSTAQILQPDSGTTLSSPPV
In short: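 Contract biochemical kinase assay on human VEGFR2 with inhibitors at 10^−8 to 10^−5 M final (some re-tested from 10^−9 M). Activity expressed as percent of no-compound control; IC50 by non-linear regression of mean replicate inhibition curves.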

[3] = test system: NF-kB; test: Gene reporter (GR) assay, NF-kB activation after TNFα in JB6 Cl 41-5a (P+) cells; assay type: cell-based, murine; details: Mus musculus, JB6 Cl 41-5a, TNFα 2 ng/ml, non toxic concentrations; read-out: Gene reporter (GR) inhibition IC50
In short: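 Murine JB6 Cl 41-5a (P+) cells stably carrying an NF-kB-RE luc2P reporter were pre-treated with compound for 1 h, then stimulated with 2 ng/ml TNFα for 4 h. Luciferase read-out with a paired viability read; quadruplicates.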

[4] = test system: IL-1β; test: Gene expression in rat articular chondrocytes under IL-1β stimulation, IL-1β; assay type: cell-based; details: for IL-1β gene expression, percentage of inhibitory effect at the highest non toxic concentration: 6 h; for IC50: Rattus norvegicus, Chondrocyte, 6 h incubation
Description: (§1) For gene expression analysis, 10 days after plating, the medium was changed and substituted with DMEM GlutaMAX I 0.4% to synchronize the cells. The cells were then co-treated in DMEM GlutaMAX I 0.4% with different concentrations of the test compounds and […] at a final concentration of 2 ng/ml for 6 h and 24 h. The test compound concentrations used have been chosen on the basis of the toxicity data.
(§2) At the end of the incubation, the supernatant was discarded, the cell were washed with cold PBS1X and scraped with 200 μl of RNA lysis buffer 1X (Nucleic Acid Purification Lysis Solution, Applied Biosystems).
(§3) Total RNA was purified using ABI Prism™ 6100 Nucleic Acid PrepStation (Applied Biosystems) following manufacturer's instructions.
(§4) Total RNA was retrotranscribed using the High-Capacity cDNA Archive Kit (Applied Biosystems-Thermo Fisher Scientific) following manufacturer's instructions.
(§5) The specific probes and primers for RealTime PCR were from Applied Biosystems (Thermo Fisher Scientific) as Assays-on-Demand™, while the probe and primers for the endogenous control 18S was a PDAR (Pre-Developed TaqMan® Assay Reagents—Applied Biosystems-Thermo Fisher Scientific).
(§6) The assays were designed to amplify target cDNA without amplifying genomic DNA.
(§7) Gene expression analysis for IL-1β, IL-6 and ADAMTS-5 were performed at 6 h incubation, while the gene expression analysis for MMP3, MMP13 and COX2 were performed at 24 h incubation.
(§8) For each compound the maximal concentration tested was dependent on the toxicity results obtained on primary rat chondrocytes.
(§9) The data analysis, with the normalisation on the amplified values for the 18S was done following the specific instruction of Applied Biosystems for the relative quantification of gene expression.

[5] = test system: IL-6; test: Gene expression in rat articular chondrocytes under IL-1β stimulation, IL-6; assay type: cell-based; details: for IL-6 gene expression, percentage of inhibitory effect at the highest non toxic concentration: 6 h; for IC50: Rattus norvegicus, Chondrocyte, 6 h incubation
Description: as §1, §2, §3, §4, §5, §6, §7, §8, §9

[6] = test system: COX2; test: Gene expression in rat articular chondrocytes under IL-1β stimulation, COX2; assay type: cell-based; set-up: key to COX2 gene expression, no effect: ne: no effect
[7] = test system: ADAMTS-5; test: Gene expression in rat articular chondrocytes under IL-1β stimulation, ADAMTS-5; assay type: cell-based; details: for IC50: Rattus norvegicus, Chondrocyte, 6 h incubation; for ADAMTS-5 gene expression, percentage of inhibitory effect at the highest non toxic concentration: 6 h
Description: as §1, §2, §3, §4, §5, §6, §7, §8, §9

[8] = test system: MMP3; test: Gene expression in rat articular chondrocytes under IL-1β stimulation, MMP3; assay type: cell-based; set-up: key to MMP3 gene expression, no effect: ne: no effect; details: for MMP3 gene expression, percentage of inhibitory effect at the highest non toxic concentration / MMP3 gene expression, no effect: 24 h
Description: as §1, §2, §3, §4, §5, §6, §7, §8, §9

[9] = test system: MMP13; test: Gene expression in rat articular chondrocytes under IL-1β stimulation, MMP13; assay type: cell-based; set-up: key to MMP13 gene expression, no effect: ne: no effect; details: 24 h
Description: as §1, §2, §3, §4, §5, §6, §7, §8, §9

[10] = test system: bovine nasal septum cartilage; test: Inhibition of cartilage degradation (GAG release) induced by IL-1α in a bovine in vitro model; assay type: cell-based; set-up: key to Bovine cartilage degradation induced by IL-1α, no effect: ne: no effect; details: for inhibition at 3 µM: read-out: Bovine cartilage degradation induced by IL-1α, % inhibitory effect at max concentration
Description: Nasal septum cartilage was collected from an eight months-old male bovine in a local slaughterhouse.
Tissue was sprayed with ethanol 70% and immediately put in sterile PBS with Antibiotic-Antimycotic stabilized solution (PBS-AASS). It was cut in order to obtain small punches (diameter 2 mm, 1 mm-thick). washed with sterile PBS-AASS, the slices were transferred in a 96X well plate (one piece per well) in DMEM 10%+AASS. 48 h later the cartilage was stimulated in white DMEM+0.1% BSA+AASS with IL-1α […] in the absence or presence of the studied compounds.
The compounds concentration used in this analysis was chosen depending on the toxicity results obtained in rat primary chondrocytes at 48 h of incubation.
After 48 h stimulation, the culture medium was collected and stored at −80° C. The cartilage punches were digested with papain at 65° C. for 2 h in phosphate buffer (0.05M pH 6.5 with 2 mM N-acetil-L-cisteine and 2 mM EDTA).
The glycosaminoglycan (GAG) determination was done by a colorimetric assay with 1,9 dimethyl methylene blue (DMB).
Digested cartilage samples were diluted in PBS-BSA 1%. To 100 μl of diluted samples or standard we added 100 μl DMB 2X. After 5-20 min incubation the samples were read at 590 nm (Titertek Multiscan Plus).
The cartilage degradation induced by IL-1α was expressed as: GAG (medium)/total GAG (medium+cartilage)×100

[11] = test system: rat primary articular chondrocytes; test: Toxicity analysis (MTT) in rat primary chondrocytes; details: for First toxic concentration at 24 h: rat primary chondrocytes
[12] = Rattus norvegicus, Chondrocyte, 24 h incubation

Chain of Fyn (P06241 whole entry): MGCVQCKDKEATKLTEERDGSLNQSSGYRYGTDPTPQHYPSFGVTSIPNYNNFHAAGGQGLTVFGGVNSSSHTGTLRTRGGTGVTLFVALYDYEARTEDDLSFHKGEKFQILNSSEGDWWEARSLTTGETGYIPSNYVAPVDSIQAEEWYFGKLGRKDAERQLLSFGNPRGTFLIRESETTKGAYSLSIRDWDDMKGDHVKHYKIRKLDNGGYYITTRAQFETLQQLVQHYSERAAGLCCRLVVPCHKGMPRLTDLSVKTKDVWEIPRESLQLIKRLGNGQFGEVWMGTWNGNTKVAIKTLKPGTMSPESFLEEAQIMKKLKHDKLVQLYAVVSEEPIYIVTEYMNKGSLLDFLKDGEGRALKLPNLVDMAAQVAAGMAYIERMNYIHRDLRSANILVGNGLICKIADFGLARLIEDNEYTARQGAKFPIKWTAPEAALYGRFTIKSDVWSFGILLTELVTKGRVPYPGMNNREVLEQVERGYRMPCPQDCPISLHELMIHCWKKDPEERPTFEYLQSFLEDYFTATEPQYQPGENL

SMILES | IC50 [1] [nM] | IC50 [2] [nM] | IC50 [3] [nM] | IL-1β gene expression, percentage of inhibitory effect at the highest non toxic concentration ([4]; 10 μM) | IL-6 gene expression, percentage of inhibitory effect at the highest non toxic concentration ([5]; 10 μM) | COX2 gene expression, percentage of inhibitory effect at the highest non toxic concentration ([6]; 10 μM, 24 h) | IC50 [7] [nM] | MMP13 gene expression, percentage of inhibitory effect at the highest non toxic concentration ([9]; 10 μM) | inhibition at 3 µM ([10]; Bos taurus) [%] | First toxic concentration at 48 h in rat primary chondrocytes [11] [µM] | First toxic concentration at 24 h [11] [µM] | IC50 [4] [nM] | IC50 [5] [nM] | MMP3 gene expression, no effect [8] | Bovine cartilage degradation induced by IL-1α, no effect [10] | MMP3 gene expression, percentage of inhibitory effect at the highest non toxic concentration ([8]; 10 μM) | further results
Cc1ncc(Nc2cc(CCc3cc(NC(=O)c4cccc(C(F)(F)F)c4)ccc3F)n[nH]2)cn1 [Compound 40, N-(4-fluoro-3-(2-(5-((2-methylpyrimidin-5-yl)amino)-1H-pyrazol-3-yl)ethyl)phenyl)-3-(trifluoromethyl)benzamide] | 99 | < 10 | 515 | 10 μM 100% | 10 μM 100% | 10 μM 100% | 2300 | 10 μM 100% | 49 | 10 | >10 | – | – | – | – | – | IC50 [8, 12]: 500 nM
Cc1cnc(Nc2cc(CCc3cc(NC(=O)c4cccc(C(F)(F)F)c4)ccc3F)n[nH]2)c(C)n1 [Compound 14, N-(3-(2-(5-((3,5-dimethylpyrazin-2-yl)amino)-1H-pyrazol-3-yl)ethyl)-4-fluorophenyl)-3-(trifluoromethyl)benzamide] | 31 | 10 | 487 | – | – | – | – | – | 97 | 10 | 10 | – | – | – | – | – | IL-1β gene expression, percentage of inhibitory effect at the highest non toxic concentration ([4]; 3 μM): 3 μM 99%; IL-6 gene expression, percentage of inhibitory effect at the highest non toxic concentration ([5]; 3 μM): 3 μM 100%; COX2 gene expression, percentage of inhibitory effect at the highest non toxic concentration ([6]; 3 μM, 24 h): 3 μM 100%; ADAMTS-5 gene expression, percentage of inhibitory effect at the highest non toxic concentration ([7]; 3 μM): 3 μM 99%; MMP3 gene expression, percentage of inhibitory effect at the highest non toxic concentration ([8]; 3 μM): 3 μM 95%; MMP13 gene expression, percentage of inhibitory effect at the highest non toxic concentration ([9]; 3 μM): 3 μM 99%
CS(=O)(=O)c1cccc(C(=O)Nc2ccc(F)c(CCc3cc(Nc4cnccn4)[nH]n3)c2)c1 [Compound 12, N-(4-fluoro-3-(2-(5-(pyrazin-2-ylamino)-1H-pyrazol-3-yl)ethyl)phenyl)-3-(methylsulfonyl)benzamide] | 24 | < 10 | 4510 | – | – | 10 μM 63% | – | 10 μM 34% | – | 10 | >10 | 3900 | 2600 | ne | ne | – | ADAMTS-5 gene expression, percentage of inhibitory effect at the highest non toxic concentration ([7]; 10 μM): 10 μM 57%
Cc1ccc(NC(=O)c2cccc(S(=O)(=O)C(C)C)c2)cc1CCc1cc(Nc2ncccc2C)[nH]n1 [Compound 35, 3-(isopropylsulfonyl)-N-(4-methyl-3-(2-(5-((3-methylpyridin-2-yl)amino)-1H-pyrazol-3-yl)ethyl)phenyl) benzamide] | 88 | < 10 | 1310 | 10 μM 74% | 10 μM 90% | 10 μM 90% | 3000 | 10 μM 88% | – | >10 | >10 | – | – | – | – | 10 μM 44% | IC50 ([10]; Bos taurus, head says nM, cells print μM, 48 h stimulation, read-out: Inhibitory effect on bovine cartilage degradation induced by IL-1α, IC50): 1500 nM
Cc1nc(C(=O)Nc2ccc(C)c(CCc3cc(Nc4cnccn4)[nH]n3)c2)c(C(F)(F)F)o1 [Compound 6, 2-methyl-N-(4-methyl-3-(2-(5-(pyrazin-2-ylamino)-1H-pyrazol-3-yl)ethyl)phenyl)-5-(trifluoromethyl)oxazole-4-carboxamide] | 112 | < 10 | 2670 | – | – | – | – | – | – | 3 | 3 | – | 640 | ne | ne | – | IL-1β gene expression, percentage of inhibitory effect at the highest non toxic concentration ([4]; 1 μM): 1 μM 50%; COX2 gene expression, no effect ([6]; 24 h): ne; ADAMTS-5 gene expression, percentage of inhibitory effect at the highest non toxic concentration ([7]; 1 μM): 1 μM 28%; MMP13 gene expression, no effect [9]: ne
CCNC1(c2ccc(C(=O)Nc3ccc(C)c(CCc4cc(Nc5cnccn5)[nH]n4)c3)cc2)CC1 [Compound 4, 4-(1-(ethylamino)cyclopropyl)-N-(4-methyl-3-(2-(5-(pyrazin-2-ylamino)-1H-pyrazol-3-yl)ethyl)phenyl)benzamide] | 21 | < 10 | 2230 | – | 10 μM 93% | – | 3000 | 10 μM 84% | – | 3 | >10 | 1700 | – | – | ne | 10 μM 55% | IC50 [6, 12]: 1400 nM
